Converted amounts (≈) assume the structure as drawn.
Experiments:
Experiment in all cases: antibacterial activity (MIC), broth dilution method
Type in all cases: cell-based
S. aureus, 209P = settings: Staphylococcus aureus, Muller-Hinton broth, 10^5 /ml bacteria, 37° C., 18 hours, read-out: Minimal Inhibitory Concentration (MIC)
Experimental: (§1) On some of the compounds according to the present invention, the antibacterial activity was determined by broth dilution method in Muller-Hinton broth in which 10^5 /ml of bacteria were seaded and incubated at 37° C. for 18 hours.

Ser. Marcescens, 10104 = settings: Serratia marcescens, Muller-Hinton broth, 10^5 /ml bacteria, 37° C., 18 hours, read-out: Minimal Inhibitory Concentration (MIC)
Experimental: as §1

E. coli, NIHJ = settings: Escherichia coli, Muller-Hinton broth, 10^5 /ml bacteria, 37° C., 18 hours, read-out: Minimal Inhibitory Concentration (MIC)
Experimental: as §1

Ps. aeruginosa, 32233 = settings: Pseudomonas aeruginosa, Muller-Hinton broth, 10^5 /ml bacteria, 37° C., 18 hours, read-out: Minimal Inhibitory Concentration (MIC)
Experimental: as §1

Ent. cloacae, 03400 = settings: Enterobacter cloacae, Muller-Hinton broth, 10^5 /ml bacteria, 37° C., 18 hours, read-out: Minimal Inhibitory Concentration (MIC)
Experimental: as §1

Question: How did the MIC (S. aureus, 209P) turn out when `CC(O)C1C(=O)N2C(C(=O)[O-])=C(SC3CCn4c[n+](C)cc43)SC12` (single isomer, unassigned) [B] was run?
Answer: ≤ 0.05 µg/mL

Question: What about the MIC (Ser. Marcescens, 10104) of the same compound?
Answer: 0.78 µg/mL (≈ 2.12 µM)

Question: And the MIC (E. coli, NIHJ)?
Answer: 0.1 µg/mL (≈ 0.272 µM)

Question: And the MIC (Ps. aeruginosa, 32233)?
Answer: 0.78 µg/mL (≈ 2.12 µM)

Question: What about the MIC (Ent. cloacae, 03400) of the same compound?
Answer: 0.2 µg/mL (≈ 0.544 µM)

Question: `CC(O)C1C(=O)N2C(C(=O)O)=C(SC3Cc4nncn4C3)SC12` [A, (5R, 6S, 8R)-6-(1-hydroxyethyl)-2-[(6,7-dihydro-5H-pyrrolo[(2,1-c]-1,2,4-triazol-6-yl)thio]-2-penem-3-carboxylic acid] was tested. Which MIC (S. aureus, 209P) did it give?
Answer: ≤ 0.05 µg/mL

Question: And the MIC (Ser. Marcescens, 10104)?
Answer: 0.78 µg/mL (≈ 2.2 µM)

Question: What about the MIC (E. coli, NIHJ) of the same compound?
Answer: ≤ 0.05 µg/mL

Question: And the MIC (Ps. aeruginosa, 32233)?
Answer: 25 µg/mL (≈ 70.5 µM)

Question: What about the MIC (Ent. cloacae, 03400) of the same compound?
Answer: 0.39 µg/mL (≈ 1.1 µM)

Question: How did the MIC (S. aureus, 209P) turn out when `CC(O)C1C(=O)N2C(C(=O)O)=C(SCCOC(N)=O)SC12` (stereo not drawn) [Sch 34343, reference compound] was run?
Answer: 0.1 µg/mL (≈ 0.299 µM)

Question: What about the MIC (Ser. Marcescens, 10104) of the same compound?
Answer: 3.13 µg/mL (≈ 9.36 µM)

Question: What about the MIC (E. coli, NIHJ) of the same compound?
Answer: 0.39 µg/mL (≈ 1.17 µM)

Question: What about the MIC (Ps. aeruginosa, 32233) of the same compound?
Answer: 100 µg/mL (≈ 299 µM)

Question: And the MIC (Ent. cloacae, 03400)?
Answer: 0.78 µg/mL (≈ 2.33 µM)
